Laboratory results published in patent publication US11066378B2, “Caffeic acid derivatives for anti-angiogenesis” (Taipei Medical University, priority 2015, dated 2021).

Test system: HUVECs
Test: Cell viability assay (MTT assay), growth inhibition of HUVECs
Format: cell-based, human
Details: Homo sapiens, HUVEC, 24 h, MTT assay, 24 h treatment, 5% FBS-stimulated HUVECs
Experimental: Human umbilical vein endothelial cells (HUVECs; #8000) were purchased from the ScienCell Research Laboratories (San Diego, Calif., USA). The cells were seeded on gelatin-coated culture dishes and grown in the commercial endothelial cell medium (#1001; ScienCell) containing 5% fetal bovine serum (FBS; #0025; ScienCell), 30 μg/mL endothelial cell growth supplements (ECGS; #1052; ScienCell), 100 units/mL penicillin G, and 100 μg/mL streptomycin sulfates (#0503; ScienCell). Cells at passage 3-6 were used for experiments. Mouse Lewis lung carcinoma cell line 1 (LLC1; #60050) was bought from the Food Industry Research and Development Institute (Hsinchu, Taiwan) and cultured in Gibco® Dulbecco's modified Eagle's medium (#12800-017; Invitrogen, Carlsbad, Calif., USA) supplemented with 10% FBS (HyClone, Logan, Utah, USA), 4 mM L-glutamine, 1.5 g/L sodium bicarbonate, 100 units/mL penicillin G, and 100 μg/mL streptomycin. All cells were incubated in a humidified 5% CO2 atmosphere at 37° C. and culture media was changed every 2˜3 days.
The experiments were performed according to our previous study with minor modifications (Pan et al., 2010). Briefly, the cells (2×10^4 cells/well) were seeded and grown under normal culture medium for 24 h. After another 24 h of starvation with 0.5% FBS, the cells were treated with several concentrations (1, 2, 4, 8, and 16 μM) of the tested compounds for 24 h and then incubated with 5 mg/mL of MTT (3-[4,5-dimethyl thiazol-2-yl]-2,5-diphenyl tetrazolium bromide) for 2 h. After that, the cells were washed with 1×PBS and then dimethyl sulfoxide (DMSO) was added to each well. Absorbance values at 570 nm were determined for each well using 650 nm as the reference wavelength. The absorbance of the control group (treated with 5% or 10% FBS alone) was defined as 100%.

| Compound | GI50 |
| --- | --- |
| COc1cc([C@H]2Oc3c(OC)cc(/C=C/C=O)cc3[C@@H]2C)ccc1O [K20A] | 24 µM |
| COC(=O)/C=C/c1cc(OC(C)=O)c2oc(-c3ccc(OC(C)=O)c(OC(C)=O)c3)c(C(=O)OC)c2c1 [K20B] | 24 µM |
| COC(=O)/C=C/c1cc(OC)c2c(c1)[C@H](C(=O)OC)[C@@H](c1ccc(O)c(OC)c1)O2 [K20L] | 32 µM |
| COC(=O)/C=C/c1ccc(O)c(O)c1 [Methyl caffeate, reference compound] | 80 µM |
